# Source: PMC11910321, “Evolutionary scenarios for the specific recognition of nonhomologous endogenous peptides by G protein–coupled receptor paralogs” (The Journal of Biological Chemistry, 2024)
# Where “and” joins values, the source holds several entries; their conditions need not be identical. Equal entries are not always repeated. No end group written: not given here.
# How the values were obtained:
# Format in all cases: cell-based
# [1] = molecular target: T1, (L1.35P, I3.24F, W4.61G)-MRGPRX1 (Homo sapiens, UniProt Q96LB2, I94F/L30P/W158G); assay: Intracellular Ca2+ mobilization in COS-7 cells, Gαq16-fused receptor, (L1.35P, I3.24F, W4.61G)-MRGPRX1
# T1 construct: host or cells: COS-7
# Source text: (§1) ORFs of MRGPRX1 and MRGPRX2 purchased from OriGene and Mm-MRGPRX1 synthesized in Genscript were C-terminally fused with the human Gαq16 protein as described previously ([23]). Briefly, the human Gαq16 ORF clone (OriGene) was amplified and ligated into the XbaI site of a pcDNA6 plasmid (Invitrogen). Then, MRGPRX1 and MRGPRX2 were subcloned (Table S1) into the NotI–XbaI site of the Gαq16-ligated pcDNA6 plasmids. MRGPRX1 and two mutants were constructed using the PrimeSTAR Mutagenesis Basal Kit with mutation oligos (Table S1).
# (§2) COS-7 cells were purchased from American Type Culture Collection and cultured in Dulbecco's modified Eagle's medium (Nacalai Tesque) supplemented with 10% fetalbovine serum (Sigma) and maintained at 37°C under 5% CO2. Intracellular Ca^2+ mobilization was measured as previously described ([42], [43]). In brief, 5 × 10^5 COS-7 cells were spread on a 60-mm dish 1 day before transfection. About 10 μg of GPCR expression vector were transfected into the cells using Lipofectamine 2000 (Thermo Fisher Scientific) according to the manufacturer’s instructions. After the 24-h incubation, 6 × 10^4 cells per well were respread on a 96-well plate for the following assay. Each MRGPRX mutant fused with human Gαq16 for expression at the cell membrane was confirmed by immunostaining using the anti-Gαq16 antibody (Ori Gene TA318890) (Fig. S5). SP (PEPTIDE […]) and BAM8–22 (Tocris Bioscience) were used for the assays. Real-time Ca^2+ mobilization of Gαq16-fused MRGPRX1/2 was measured using a Ca5 kit (Molecular Devices) and FlexStation III according to the manufacturer’s instructions. The calcium accumulation data were analyzed using Prism, version 6 (GraphPad) and found to fit a sigmoidal concentration–response curve, and the means ± SEMs of EC50 were calculated.
# (I3.24F, W4.61G)-MRGPRX1 = molecular target: T2, (I3.24F, W4.61G)-MRGPRX1 (Homo sapiens, UniProt Q96LB2, I94F/W158G); assay: Intracellular Ca2+ mobilization in COS-7 cells, Gαq16-fused receptor, (I3.24F, W4.61G)-MRGPRX1
# T2 construct: host or cells: COS-7
# Source text: as §1, §2
# [2] = molecular target: (I3.24F, W4.61G)-Mm-MRGPRX1 (Macaca mulatta, UniProt A0A5F7ZSN8, I94F/W158G); assay: Intracellular Ca2+ mobilization in COS-7 cells, Gαq16-fused receptor, (I3.24F, W4.61G)-Mm-MRGPRX1; details: SP
# Source text: as §1
# (§3) COS-7 cells were purchased from American Type Culture Collection and cultured in Dulbecco's modified Eagle's medium (Nacalai Tesque) supplemented with 10% fetalbovine serum (Sigma) and maintained at 37°C under 5% CO2. Intracellular Ca^2+ mobilization was measured as previously described ([42], [43]). In brief, 5 × 10^5 COS-7 cells were spread on a 60-mm dish 1 day before transfection. […] Real-time Ca^2+ mobilization of Gαq16-fused MRGPRX1/2 was measured using a Ca5 kit (Molecular Devices) and FlexStation III according to the manufacturer’s instructions. The calcium accumulation data were analyzed using Prism, version 6 (GraphPad) and found to fit a sigmoidal concentration–response curve, and the means ± SEMs of EC50 were calculated.
# (P1.35L)-MRGPRX2 = molecular target: T3, (P1.35L)-MRGPRX2 (Homo sapiens, UniProt Q96LB1, P33L); assay: Intracellular Ca2+ mobilization in COS-7 cells, Gαq16-fused receptor, (P1.35L)-MRGPRX2; details: COS-7, Ca2+ mobilization
# T3 construct: host or cells: COS-7
# T3 sequence (Q96LB1 1-330 P33L): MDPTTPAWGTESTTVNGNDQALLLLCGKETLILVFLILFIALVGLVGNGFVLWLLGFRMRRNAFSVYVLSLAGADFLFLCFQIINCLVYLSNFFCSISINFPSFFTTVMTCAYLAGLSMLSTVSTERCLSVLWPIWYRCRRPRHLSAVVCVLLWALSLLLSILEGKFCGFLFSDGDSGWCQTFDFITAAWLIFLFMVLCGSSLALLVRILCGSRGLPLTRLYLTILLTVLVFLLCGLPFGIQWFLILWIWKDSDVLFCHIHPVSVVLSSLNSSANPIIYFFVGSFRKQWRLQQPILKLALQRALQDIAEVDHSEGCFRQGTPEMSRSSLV
# Method: COS-7 cells were purchased from American Type Culture Collection and cultured in Dulbecco's modified Eagle's medium (Nacalai Tesque) supplemented with 10% fetalbovine serum (Sigma) and maintained at 37°C under 5% CO2. Intracellular Ca^2+ mobilization was measured as previously described ([42], [43]). In brief, 5 × 10^5 COS-7 cells were spread on a 60-mm dish 1 day before transfection. About 10 μg of GPCR expression vector were transfected into the cells using Lipofectamine 2000 (Thermo Fisher Scientific) according to the manufacturer’s instructions. After the 24-h incubation, 6 × 10^4 cells per well were respread on a 96-well plate for the following assay. […] Real-time Ca^2+ mobilization of Gαq16-fused MRGPRX1/2 was measured using a Ca5 kit (Molecular Devices) and FlexStation III according to the manufacturer’s instructions. The calcium accumulation data were analyzed using Prism, version 6 (GraphPad) and found to fit a sigmoidal concentration–response curve, and the means ± SEMs of EC50 were calculated.
# MRGPRX1 WT = molecular target: T4, MRGPRX1 WT (Homo sapiens, UniProt Q96LB2); assay: Intracellular Ca2+ mobilization in COS-7 cells, Gαq16-fused receptor, wildtype MRGPRX1; details: BAM8–22
# T4 construct: host or cells: COS-7
# Source text: as §1, §3
# (L1.35P)-MRGPRX1 = molecular target: T5, (L1.35P)-MRGPRX1 (Homo sapiens, UniProt Q96LB2, L30P); assay: Intracellular Ca2+ mobilization in COS-7 cells, Gαq16-fused receptor, (L1.35P)-MRGPRX1
# T5 construct: host or cells: COS-7
# Source text: as §1, §3
# (S1.43A)-MRGPRX1 = molecular target: T6, (S1.43A)-MRGPRX1 (Homo sapiens, UniProt Q96LB2, S38A); assay: Intracellular Ca2+ mobilization in COS-7 cells, Gαq16-fused receptor, (S1.43A)-MRGPRX1; details: BAM8–22
# T6 construct: host or cells: COS-7
# Source text: as §1, §3
# Mm-MRGPRX1 WT = molecular target: T7, Mm-MRGPRX1 WT (Macaca mulatta, UniProt A0A5F7ZSN8); assay: Intracellular Ca2+ mobilization in COS-7 cells, Gαq16-fused receptor, intact Mm-MRGPRX1; details: BAM8–22
# T7 construct: host or cells: COS-7
# Source text: as §1, §3
# (F1.35L)-Mm-MRGPRX1 = (F1.35L)-Mm-MRGPRX1 (Macaca mulatta, UniProt A0A5F7ZSN8, F30L); assay: Intracellular Ca2+ mobilization in COS-7 cells, Gαq16-fused receptor, (F1.35L)-Mm-MRGPRX1; details: BAM8–22; COS-7, Ca2+ mobilization; mean ± standard error of three replicate analyses; read-out: Maximal response
# Source text: as §1, §3
# [3] = COS-7, SP, compared with intact MRGPRX2, mean ± standard error of three replicate analyses, read-out: Maximal response (Emax)
# [4] = SP, COS-7, Gαq16-fused, Ca2+ mobilization, three replicate analyses
# [5] = COS-7, Ca2+ mobilization, mean ± standard error of three replicate analyses, read-out: Maximal response
# [6] = COS-7, Gαq16-fused, Ca2+ mobilization, three replicate analyses
# T2 sequence (Q96LB2 whole entry I94F/W158G, the tested form may be a part): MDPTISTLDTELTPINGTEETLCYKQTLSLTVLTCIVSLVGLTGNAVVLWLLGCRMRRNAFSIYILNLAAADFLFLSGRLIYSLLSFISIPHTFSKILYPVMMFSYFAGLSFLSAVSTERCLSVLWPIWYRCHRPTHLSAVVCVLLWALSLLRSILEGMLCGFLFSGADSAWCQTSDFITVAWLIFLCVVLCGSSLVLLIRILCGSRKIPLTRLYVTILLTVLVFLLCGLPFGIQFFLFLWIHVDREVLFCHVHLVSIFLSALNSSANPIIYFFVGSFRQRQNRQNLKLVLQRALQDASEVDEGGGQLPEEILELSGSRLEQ
# Chain of (I3.24F, W4.61G)-Mm-MRGPRX1 (A0A5F7ZSN8 1-322 I94F/W158G): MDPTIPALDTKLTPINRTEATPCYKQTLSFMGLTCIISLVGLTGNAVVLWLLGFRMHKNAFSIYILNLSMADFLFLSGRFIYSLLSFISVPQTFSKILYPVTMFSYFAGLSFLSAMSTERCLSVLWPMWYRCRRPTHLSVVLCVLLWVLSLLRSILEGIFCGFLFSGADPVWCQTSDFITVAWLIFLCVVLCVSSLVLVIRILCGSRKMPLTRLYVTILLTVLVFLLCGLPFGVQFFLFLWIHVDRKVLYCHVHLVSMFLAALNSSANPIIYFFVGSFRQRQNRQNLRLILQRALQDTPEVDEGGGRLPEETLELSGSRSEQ
# T1 sequence (Q96LB2 whole entry L30P/I94F/W158G, the tested form may be a part): as the sequence (Q96LB2 whole entry I94F/W158G, the tested form may be a part) above, with L30P counted along it
# T7 sequence (A0A5F7ZSN8 1-322): as the sequence (A0A5F7ZSN8 1-322 I94F/W158G) above, with F94I, G158W counted along it
# T4 sequence (Q96LB2 whole entry, the tested form may be a part): as the sequence (Q96LB2 whole entry I94F/W158G, the tested form may be a part) above, with F94I, G158W counted along it
# T5 sequence (Q96LB2 whole entry L30P, the tested form may be a part): as the sequence (Q96LB2 whole entry I94F/W158G, the tested form may be a part) above, with L30P, F94I, G158W counted along it
# T6 sequence (Q96LB2 whole entry S38A, the tested form may be a part): as the sequence (Q96LB2 whole entry I94F/W158G, the tested form may be a part) above, with S38A, F94I, G158W counted along it
# Chain of (F1.35L)-Mm-MRGPRX1 (A0A5F7ZSN8 1-322 F30L): as the sequence (A0A5F7ZSN8 1-322 I94F/W158G) above, with F30L, F94I, G158W counted along it
compound,measurement,setting,value
"CSCC[C@H](NC(=O)[C@H](CC(C)C)NC(=O)CNC(=O)[C@H](Cc1ccccc1)NC(=O)[C@H](Cc1ccccc1)NC(=O)[C@H](CCC(N)=O)NC(=O)[C@H](CCC(N)=O)NC(=O)[C@@H]1CCCN1C(=O)[C@H](CCCCN)NC(=O)[C@@H]1CCCN1C(=O)[C@@H](N)CCCNC(=N)N)C(N)=O [SP, substance P]",EC50 compared with MRGPRX2-SP (in words),"[1]; COS-7, Ca2+ mobilization",comparable to that of MRGPRX2-SP
same,Emax,[1]; [3],39.5 ± 3%
same,EC50,[1]; [4],1660 nM
same,EC50 compared with MRGPRX2-SP (in words),"(I3.24F, W4.61G)-MRGPRX1; COS-7, Ca2+ mobilization",comparable to that of MRGPRX2-SP
same,Emax,"(I3.24F, W4.61G)-MRGPRX1; [3]",42.1 ± 2.28%
same,EC50,"(I3.24F, W4.61G)-MRGPRX1; [4]",2240 nM
same,Emax,[2]; [5],100 ± 5.28%
same,EC50,[2]; [6],200 nM and 690 nM
"VGRPEWWMDYQKRYG [BAM8–22, bovine adrenal medulla peptide 8–22]",Response to 3 μM BAM8–22,(P1.35L)-MRGPRX2,30.23 ± 1.08%
same,Emax,MRGPRX1 WT; [5],100 ± 7.78%
same,EC50,MRGPRX1 WT; [6],170 nM
same,"Response to 3 μM BAM8–22, of that of wildtype MRGPRX1","(L1.35P)-MRGPRX1; 3 μM BAM8–22, COS-7, Ca2+ mobilization",48.48 ± 1.08%
same,EC50,"(L1.35P)-MRGPRX1; BAM8–22, COS-7, Gαq16-fused, Ca2+ mobilization, three replicate analyses",3.16 µM
same,Emax,(S1.43A)-MRGPRX1; [5],102 ± 9.64%
same,EC50,(S1.43A)-MRGPRX1; [6],200 nM
same,Emax,Mm-MRGPRX1 WT; [5],66.5 ± 2.91%
same,EC50,Mm-MRGPRX1 WT; [6],2570 nM
same,Emax,(F1.35L)-Mm-MRGPRX1,100 ± 1.94%
